Results published in patent US20260026506A1, “COMPOSITION FOR DISSOLVING AN OILY COMPOUND IN WATER” (AFFIX LABS OY, priority 2022, published 2026).

How the values were obtained:
[1] = Dissolving DEET with the composition of the invention (Example 3, general procedure); assay type: physicochemical; details: composition of Table 3
Method: A general procedure to prepare the solution of an active compound in the composition of the invention is applied: • Deionized water was brought in a beaker equipped with a stirring bar and placed on a stirring plate. The cosolvent was added to the solution whilst stirring. Subsequently, the surfactant was added, and before the surfactant was dissolved also icaridin was added. Stirring is stopped when all components of the composition are dissolved.
The same test was applied to determine if the composition of the invention is also able to dissolve alternative water-insoluble compounds. In this experiment icaridin was switched for DEET and the general procedure was applied.

[2] = Dissolving icaridin in water with individual components only (Example 2, visual result); assay type: physicochemical; details: icaridin 5.0 wt.%
Method: In this experiment, it is tested if the combination of the cosolvent and the surfactant is required to dissolve icaridin or if individual components can also dissolve icaridin in water.
Deionized water was brought in a beaker equipped with a stirring bar and placed on a stirring plate. The (when applicable) cosolvent was added to the solution whilst stirring. Subsequently (when applicable) the surfactant was added, before this dissolved also (when applicable) icaridin was added. Stirring is stopped when everything is dissolved.

CCN(CC)C(=O)c1cccc(C)c1 [DEET, N,N-diethyl-m-toluamide]
Amount dissolved in water by the composition of the invention [1]: 5 wt. %

CCC(C)OC(=O)N1CCCCC1CCO (centres unmarked) [icaridin]
Solubility of icaridin in water (conclusion from Table 2) [2]: only soluble in water using the combination cosolvent and surfactants
